Results as given in patent publication US6342602B1, “Aryl or heteroaryl amides of tetrahydronaphthalene, chroman, thichroman and 1,2,3,4-tetrahydroquinolinecarboxlic acids, having an electron withdrawing substituent in the aromatic or heteroaromatic moiety, having retinoid-like biological activity” (Allergan Sales, Inc., priority 1995, dated 2002).
Like-named read-outs stand apart in the source and are kept apart here.

Key:
Assay in all cases: Ligand binding assay
RARα = target: T1, RARα (Homo sapiens, UniProt P10276)
T1 construct: made in house; used as extract protein
T1 sequence (P10276 1-462): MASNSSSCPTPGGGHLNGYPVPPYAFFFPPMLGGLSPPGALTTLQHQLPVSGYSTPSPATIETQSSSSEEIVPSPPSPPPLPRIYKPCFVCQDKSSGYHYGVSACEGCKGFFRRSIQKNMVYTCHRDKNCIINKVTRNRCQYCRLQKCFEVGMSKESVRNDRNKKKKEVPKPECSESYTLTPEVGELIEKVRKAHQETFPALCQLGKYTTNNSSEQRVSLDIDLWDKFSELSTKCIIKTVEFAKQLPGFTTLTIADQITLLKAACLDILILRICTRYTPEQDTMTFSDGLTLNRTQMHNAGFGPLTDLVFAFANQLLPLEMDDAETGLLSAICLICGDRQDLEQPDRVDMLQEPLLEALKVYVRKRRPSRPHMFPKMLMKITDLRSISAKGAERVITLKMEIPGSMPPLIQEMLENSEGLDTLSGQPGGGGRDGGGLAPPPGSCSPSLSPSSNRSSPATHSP
Description: (§1) A holoreceptor transactivation assay and a ligand binding assay which measure the ability of the compounds of the invention to bind to the several retinoid receptor subtypes, respectively, are described in published PCT Application No. WO WO93/11755 (particularly on pages 30-33 and 37-41) published on Jun. 24, 1993, the specification of which is also incorporated herein by reference. A description of the ligand binding assay is also provided below.
(§2) All binding assays were performed in a similar fashion. All six receptor types were derived from the expressed receptor type (RAR α, β, τ and RXR α, β, τ) expressed in Baculovirus. Stock solutions of all compounds were prepared as 10 mM ethanol solutions and serial dilutions carried out into 1:1 DMSO; ethanol. Assay buffers consisted of the following for all six receptor assays: 8% glycerol, 120 mM KCl, 8 mM Tris, 5 mM CHAPS 4 mM DTT and 0.24 mM PMSF, pH-7.4@room temperature.
(§3) All receptor biding assays were performed in the same manner. The final assay volume was 250 μl and contained from […] of extract protein depending on receptor being assayed along with 5 nM of [^3H) alltrans retinoic acid or 10 nM [^3H) 9-cis retinoic acid and varying concentrations of competing ligand at concentrations that ranged from 0-10^−5 M. The assays were formatted for a 96 well minitube system. Incubations were carried out at 4° C. until equilibrium was achieved. Non-specific binding was defined as that binding remaining in the presence of 1000 nM of the appropriate unlabeled retinoic acid isomer. At the end of the incubation period, 50 μl of 6.25% hydroxyapitite was added in the appropriate wash buffer. The wash buffer consisted of 100 mM KCl, 10 mM Tris and either 5 mM CHAPS (RXR α, β, τ) or 0.5% Triton X-100 (RAR α, β, τ). The mixture was vortexed and incubated for 10 minutes at 4° C., centrifuged and the supernatant removed. The hydroxyapitite was washed three more times with the appropriate wash buffer. The receptor-ligand complex was adsorbed by the hydroxyapitite. The amount of receptor-ligand complex was determined by liquid scintillation counting of hydroxyapitite pellet.
(§4) After correcting for non-specific binding, IC50 values were determined. […] The IC50 value was determined graphically from a loglogit plot of the data. The Kd values were determined by application of the ChengPrussof equation to the IC50 values, the labeled ligand concentration and the Kd of the labeled ligand.
(§5) The results of ligand binding assay are expressed in Kd numbers. (See Cheng et al. Biochemical Pharmacology Vol. 22 pp 3099-3108, expressly incorporated herein by reference.)

RARΓ = target: T2, RARΓ (Homo sapiens, UniProt P13631)
T2 construct: made in house; used as extract protein
T2 sequence (P13631 1-454): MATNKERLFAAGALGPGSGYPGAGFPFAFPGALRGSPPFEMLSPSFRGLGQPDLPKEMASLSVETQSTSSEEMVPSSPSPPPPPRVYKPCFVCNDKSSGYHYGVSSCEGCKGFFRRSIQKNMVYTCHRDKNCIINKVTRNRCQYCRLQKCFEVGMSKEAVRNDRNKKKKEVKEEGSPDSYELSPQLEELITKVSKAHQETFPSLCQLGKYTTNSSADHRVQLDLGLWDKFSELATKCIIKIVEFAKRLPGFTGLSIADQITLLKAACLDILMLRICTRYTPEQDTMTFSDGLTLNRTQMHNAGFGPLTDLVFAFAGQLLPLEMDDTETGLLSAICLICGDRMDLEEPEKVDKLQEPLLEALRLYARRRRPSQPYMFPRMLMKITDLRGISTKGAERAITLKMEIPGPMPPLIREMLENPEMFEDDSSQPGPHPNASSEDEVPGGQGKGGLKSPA
Description: as §1, §2, §3, §4, §5

RXRΓ = target: T3, RXRΓ (Homo sapiens, UniProt P48443); conditions: receptor expressed in Baculovirus; competition with [3H] retinoic acid; Cheng-Prusoff from IC50
T3 construct: made in house; used as extract protein
T3 sequence (P48443 1-463): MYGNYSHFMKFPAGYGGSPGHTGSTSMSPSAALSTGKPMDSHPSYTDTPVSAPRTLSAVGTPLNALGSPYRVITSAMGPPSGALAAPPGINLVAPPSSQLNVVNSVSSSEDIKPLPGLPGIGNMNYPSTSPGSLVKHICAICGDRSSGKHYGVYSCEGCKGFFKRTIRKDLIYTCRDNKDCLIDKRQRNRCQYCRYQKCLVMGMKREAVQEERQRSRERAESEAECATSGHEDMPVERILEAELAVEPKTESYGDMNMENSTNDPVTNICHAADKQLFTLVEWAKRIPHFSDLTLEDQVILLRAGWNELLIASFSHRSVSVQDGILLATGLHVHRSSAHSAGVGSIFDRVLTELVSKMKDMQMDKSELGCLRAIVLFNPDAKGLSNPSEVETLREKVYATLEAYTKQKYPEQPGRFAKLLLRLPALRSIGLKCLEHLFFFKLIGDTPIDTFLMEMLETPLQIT
Description: as §1, §2, §3, §4, §5

RXRβ = target: T4, RXRβ (Homo sapiens, UniProt P28702); conditions: receptor expressed in Baculovirus; competition with [3H] retinoic acid; Cheng-Prusoff from IC50
T4 construct: made in house; used as extract protein
T4 sequence (P28702 1-533): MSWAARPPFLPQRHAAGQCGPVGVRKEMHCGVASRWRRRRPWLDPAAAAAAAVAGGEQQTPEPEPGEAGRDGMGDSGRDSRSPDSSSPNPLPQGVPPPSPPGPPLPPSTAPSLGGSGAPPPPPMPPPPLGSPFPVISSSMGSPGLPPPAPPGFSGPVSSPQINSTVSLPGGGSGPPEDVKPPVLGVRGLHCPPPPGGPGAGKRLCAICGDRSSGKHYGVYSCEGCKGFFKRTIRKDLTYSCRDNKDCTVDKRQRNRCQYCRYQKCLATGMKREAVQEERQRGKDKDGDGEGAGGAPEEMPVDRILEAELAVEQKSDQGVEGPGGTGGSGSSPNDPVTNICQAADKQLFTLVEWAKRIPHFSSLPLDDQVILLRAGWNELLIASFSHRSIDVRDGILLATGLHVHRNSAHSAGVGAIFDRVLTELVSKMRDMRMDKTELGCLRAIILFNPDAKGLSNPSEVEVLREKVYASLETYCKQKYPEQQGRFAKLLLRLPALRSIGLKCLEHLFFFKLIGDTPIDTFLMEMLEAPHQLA
Description: as §1, §2, §3, §4, §5

[1] = receptor expressed in Baculovirus, competition with [3H] retinoic acid, Cheng-Prusoff from IC50, read-out: Kd RARα
[2] = receptor expressed in Baculovirus, competition with [3H] retinoic acid, Cheng-Prusoff from IC50, read-out: Kd RARΓ

Kd (RARα; [1]) [µM]	Kd (RARΓ; [2]) [µM]	Kd (RXRΓ) [µM]	Kd (RXRβ) [µM]	Compound	Kd (RARα) [µM]	Kd (RARΓ) [µM]
0.0019	> 1	> 1	> 1	CC1(C)CCC(C)(C)c2cc(C(=O)Nc3ccc(C(=O)O)c(F)c3)ccc21 [Compound 2]	–	–
0.023	0.096	> 1	> 1	CC1(C)CCC(C)(C)c2cc(C(=O)Nc3ccc(C(=O)O)cc3)c(F)cc21 [Compound 4]	–	–
0.0013	> 1	> 1	> 1	CC1(C)CCC(C)(C)c2c(Br)cc(C(=O)Nc3ccc(C(=O)O)c(F)c3)cc21 [Compound 6]	–	–
0.024	> 1	> 1	> 1	CC1(C)CC(C)(C)c2cc(C(=O)Nc3ccc(C(=O)O)c(F)c3)cc(Br)c2O1 [Compound 12]	–	–
0.014	> 1	> 1	> 1	CC1(C)CC(C)(C)c2cc(C(=O)Nc3ccc(C(=O)O)c(F)c3)cc(C(F)(F)F)c2O1 [Compound 14]	–	–
0.052	> 1	> 1	> 1	CC1(C)CC(C)(C)c2cc(C(=O)Nc3ccc(C(=O)O)c(F)c3)cc(N=[N+]=[N-])c2O1 [Compound 16, 2-Fluoro-4-[(21′,2′,4′,4′-tetramethyl-8′-azidochroman-6′-yl)carbamoyl]benzoic Acid]	–	–
0.051	> 1	> 1	> 1	CC1(C)CC(C)(C)c2cc(C(=O)Nc3cc(F)c(C(=O)O)c(F)c3)cc(C(F)(F)F)c2O1 [Compound 18, 2,6-Difluoro-4-[(2′,2′,4′,4′-tetramethyl-8′-trifluoromethylchroman-6′-yl)carbamoyl]benzoic Acid]	–	–
0.016	> 1	> 1	> 1	CC1(C)CC(C)(C)c2cc(C(=O)Nc3ccc(C(=O)O)c(F)c3)cc(I)c2O1 [Compound 20]	–	–
0.057	> 1	> 1	> 1	Cc1cc(C(=O)Nc2ccc(C(=O)O)c(F)c2)cc2c1OC(C)(C)CC2(C)C [Compound 22]	–	–
0.015	> 1	> 1	> 1	CC1(C)CCC(C)(C)c2cc(C(=S)Nc3ccc(C(=O)O)cc3)ccc21 [Compound 26]	–	–
0.162	> 1	> 1	> 1	CC1(C)CC(C)(C)c2cc(C(=O)Nc3ccc(C(=O)O)c(F)c3)ccc2O1 [Compound 32]	–	–
0.009	> 1	> 1	> 1	CC1(C)CCC(C)(C)c2cc(C(=O)Nc3cc(F)c(C(=O)O)c(F)c3)ccc21 [Compound 38]	–	–

Compound	Kd (RARα; [1]) [µM]	Kd (RARΓ; [2]) [µM]	Kd (RXRΓ) [µM]	Kd (RXRβ) [µM]	Kd (RARα) [µM]	Kd (RARΓ) [µM]
CC1(C)CCC(C)(C)c2cc(C(=O)Nc3ccc(C(=O)O)c(F)c3)c(O)cc21 [Compound 8]	0.003	> 1	> 1	> 1	–	–
CC1(C)CCC(C)(C)c2c1cc(C(=O)Nc1cc(F)c(C(=O)O)c(F)c1)c(O)c2Br [Compound 36]	–	–	> 1	> 1	0.0023	> 1
